How the values were obtained:
Assay in all cases: relative viability (nuclei count vs DMSO), 5 days (fraction); higher = more cells survive
[1] = compound: Cc1cc(Nc2cc(N3CCN(C)CC3)nc(Sc3ccc(NC(=O)C4CC4)cc3)n2)n[nH]1 [Tozasertib] + COc1cc2c(Oc3ccc(NC(=O)C4(C(=O)Nc5ccc(F)cc5)CC4)cc3F)ccnc2cc1OCCCN1CCOCC1 [Foretinib] (partner 0.25 µM)
How it was run: (§1)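 Five library-drug doses in √10 steps were combined with a fixed anchor-drug dose, or a single drug was given alone, by pin tool to lung cancer cell lines in 1536-well plates the day after seeding. Nuclei were stained and counted after 5 days. Relative viability is the nuclei count in treated wells over that in vehicle wells, taken as the median of duplicate plates.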

[2] = compound: Cc1cc(Nc2cc(N3CCN(C)CC3)nc(Sc3ccc(NC(=O)C4CC4)cc3)n2)n[nH]1 [Tozasertib] + NC(=O)Nc1cc(-c2cccc(F)c2)sc1C(=O)N[C@H]1CCCNC1 [AZD7762] (partner 0.2 µM)
How it was run: as §1

[3] = compound: Cc1cc(Nc2cc(N3CCN(C)CC3)nc(Sc3ccc(NC(=O)C4CC4)cc3)n2)n[nH]1 [Tozasertib] + CS(=O)(=O)CCNCc1ccc(-c2ccc3ncnc(Nc4ccc(OCc5cccc(F)c5)c(Cl)c4)c3c2)o1 [Lapatinib] (partner 2 µM)
How it was run: as §1

[4] = compound: Cc1cc(Nc2cc(N3CCN(C)CC3)nc(Sc3ccc(NC(=O)C4CC4)cc3)n2)n[nH]1 [Tozasertib] + CC(=O)c1c(C)c2cnc(Nc3ccc(N4CCNCC4)cn3)nc2n(C2CCCC2)c1=O [Palbociclib] (partner 0.5 µM)
How it was run: as §1

[5] = compound: Cc1cc(Nc2cc(N3CCN(C)CC3)nc(Sc3ccc(NC(=O)C4CC4)cc3)n2)n[nH]1 [Tozasertib] + COc1cccc2cc(-c3nc([C@H]4CC[C@H](C(=O)O)CC4)n4ncnc(N)c34)[nH]c12 [OSI-027] (partner 0.5 µM)
How it was run: as §1

Row | Cell Line | relative viability ([1]; first compound 0.004 µM) | relative viability ([1]; first compound 0.01265 µM) | relative viability ([1]; first compound 0.04 µM) | relative viability ([1]; first compound 0.1265 µM) | relative viability ([2]; first compound 0.004 µM) | relative viability ([2]; first compound 0.01265 µM) | relative viability ([2]; first compound 0.04 µM) | relative viability ([2]; first compound 0.1265 µM) | relative viability ([3]; first compound 0.004 µM) | relative viability ([3]; first compound 0.01265 µM) | relative viability ([3]; first compound 0.04 µM) | relative viability ([3]; first compound 0.1265 µM) | relative viability ([4]; first compound 0.004 µM) | relative viability ([4]; first compound 0.01265 µM) | relative viability ([4]; first compound 0.04 µM) | relative viability ([4]; first compound 0.1265 µM) | relative viability ([5]; first compound 0.004 µM) | relative viability ([5]; first compound 0.01265 µM) | relative viability ([5]; first compound 0.04 µM) | relative viability ([5]; first compound 0.1265 µM)
1 | NCI-H1395 | 0.951 | 0.864 | 0.972 | 0.838 | 0.385 | 0.414 | 0.389 | 0.397 | 1.29 | 0.818 | 1.04 | 0.572 | 0.613 | 0.612 | 0.632 | 0.56 | 0.7 | 0.6 | 0.646 | 0.437
2 | NCI-H1975 | 1 | 1.03 | 1.03 | 0.844 | 0.93 | 0.672 | 0.727 | 0.612 | 0.886 | 0.876 | 0.903 | 0.429 | 0.59 | 0.598 | 0.623 | 0.622 | 0.968 | 0.758 | – | 0.683
3 | NCI-H727 | 1.02 | 0.984 | 0.958 | 0.689 | 0.446 | 0.481 | 0.716 | 0.455 | 0.959 | – | 0.942 | 0.442 | 0.554 | 0.573 | 0.629 | 0.563 | 0.75 | 0.536 | 0.683 | 0.539
4 | LK-2 | 1.51 | 0.927 | 1.34 | 0.267 | 0.466 | 0.54 | 0.624 | 0.138 | 1.01 | 0.869 | 1.01 | 0.219 | 0.736 | 0.782 | 0.887 | 0.378 | 0.184 | 0.199 | 0.198 | 0.182
5 | HCC-78 | 0.678 | 0.708 | 0.587 | 0.466 | 0.806 | 0.519 | 0.668 | 0.477 | 0.985 | 0.58 | – | 0.643 | 0.404 | 0.466 | 0.451 | 0.484 | 0.387 | 0.357 | 0.363 | 0.361
6 | NCI-H2347 | 1.17 | 0.908 | 0.842 | 0.87 | 0.686 | 0.686 | 0.835 | 0.75 | 1.06 | 1.01 | 0.953 | 0.763 | 0.384 | 0.457 | 0.472 | 0.413 | 0.447 | – | 0.369 | 0.389
7 | NCI-H838 | 0.977 | 0.922 | 1.05 | 0.921 | 0.881 | 0.971 | 0.925 | – | 1.12 | 0.947 | 1.16 | 0.208 | 0.238 | 0.213 | 0.25 | 0.171 | 0.485 | 0.354 | 0.426 | 0.257
8 | LU99A | 0.798 | 0.629 | 0.796 | 0.487 | 0.314 | 0.328 | 0.306 | 0.169 | 1.07 | 0.749 | 0.742 | 0.467 | 0.423 | 0.386 | 0.369 | 0.324 | 0.307 | 0.278 | 0.269 | 0.269
9 | NCI-H2405 | 1.09 | 1 | 1.01 | 0.974 | 0.753 | – | 0.612 | 0.547 | 1.05 | 0.962 | 0.793 | 0.705 | 0.558 | 0.538 | 0.498 | 0.527 | 0.616 | 0.676 | 0.642 | 0.698

— the supplement of paper PMC10307832
